The results in this text go back to PMC4684500, “Diversity, Antimicrobial Action and Structure-Activity Relationship of Buffalo Cathelicidins” (PLoS ONE, 2015).

Assay [1] has as its system PBMCs. Description: In vitro cytokine response, qRT-PCR. The note with it: peptide 500 nM, 1 h, qRT-PCR vs PBS control, p<0.05. The format is cell-based, buffalo. The procedure:
For measurement of in vitro cytokine response, PBMCs were isolated from blood and maintained in serum-free RPMI-1640 (Sigma Aldrich, MO, USA) medium. Cells were exposed to peptides (500 nM), muramyl-di-peptide (Invivogen, San Diego, CA) [MDP (10 μg/ml) as positive control] and PBS (negative control). Cells were incubated for 1 h and relative mRNA abundance of cytokines was quantified by qRT-PCR using RPS-18 gene as housekeeping control. Total RNA, extracted by TRIzol (Ambion, CA, USA) method was used for cDNA preparation (Superscript III cDNA synthesis kit; Invitrogen, CA, USA).qRT-PCR reactions were performed in a Light Cycler® 480 II machine (Roche Diagnostics, USA). Each reaction consisted of 2 μl cDNA template, 5 μl of 2× SYBR® Green PCR Master Mix (Thermo Scientific, PA, USA), 0.25 μl each of forward and reverse primers (10 pmol) and nuclease free water for a final volume of 10 μl. Each sample was run in duplicate.
(Real-time PCR tracks product formation cycle by cycle.)

Assay [2] concerns P. aeruginosa biofilm. In words: Biofilm assay (crystal violet). It is filed as cell-based, Pseudomonas aeruginosa. The note with it: peptide at 1× and 2× MIC, 24 h 37°C, crystal violet A570. As for the experimental part: (§1) The efficacy of peptides against biofilms of S. aureus and P. aeruginosa was determined using previously described method. Overnight grown bacterial cultures were diluted (1:100) and 200 μl suspensions were mixed with each peptide (1× and 2× MIC) in a 96 well plate and incubated for 24 h at 37°C. Biofilms were fixed with paraformadehyde solution, cultures were decanted and 0.1% crystal violet solution was added to stain the film. The plate was rinsed thrice with water and air-dried. The stain was dissolved by 100 μl of acetic acid (30%) and absorbance was measured at 570 nm. The experiment was performed in triplicate, 30% acetic acid was taken as a blank.

For assay [3], the system named is S. aureus, S. typhimurium and P. aeruginosa. In words: Time kill kinetics, three pathogens. It is filed as cell-based. The note with it: peptide at 4× MIC. The procedure:
(§2) The buCATHL4 peptides were synthesized by G L Biochem (Shanghai, China). Purity and molecular mass of the peptides were provided by the vendors using HPLC and mass spectrometry, respectively. The purity of all peptides were >98%. Minimum inhibitory concentrations (MIC) of buCATHL4s against the pathogenic microorganisms were tested by broth micro-dilution technique. Briefly, bacteria were grown in Mueller Hinton broth (Sigma-Aldrich, MO, USA) at 37°C. The OD of early-log phase cultures were adjusted to 0.08–0.1 and further diluted (1:200) to keep inoculums concentration nearly 10^6 colony forming units (CFU)/ml. Diluted peptides (10 μl) were mixed with equi-volume solution A (0.02% acetic acid containing 0.4% BSA) and were serially diluted in the solution B (0.01% acetic acid containing 0.2% BSA). Bacterial inoculums (90 μl) were mixed with serially diluted peptides and incubated at 37°C for 24 h without shaking. […] All peptides were tested in triplicate. For time kill kinetics experiments, peptides (1×, 2× and 4× MIC) were added to bacterial suspension of Staphylococcus aureus, Salmonella enterica and Pseudomonas aeruginosa, as described in the MIC determination method. Aliquots of representative wells were diluted and plated on Muller Hinton agar plates at 0, 1, 4, 12 and 24 h intervals. Water with 0.01% acetic acid and ampicillin (100 mg/ml) were taken as […] controls, respectively. The results were represented as log CFU/ml.

Assay [4] deals with Acinetobacter johnsonii NCDC-0072. The format is cell-based. The note with it: 24 h. The procedure: as §2
Assay [5] has as its system Escherichia coli MTCC-0723. It is filed as cell-based. The note with it: MTCC-0723, 24 h. As for the experimental part:
as §2

In assay [6] the test system is Listeria monocytogenes ATCC-19111. The format is cell-based. The note with it: ATCC-19111, 24 h. As for the experimental part: as §2
Assay [7] deals with Bacillus cereus NCDC-0240. The format is cell-based. The note with it: NCDC-0240, 24 h. As for the experimental part:
as §2

Assay [8] has as its system Pseudomonas aeruginosa ATCC-27853. It is filed as cell-based. The note with it: ATCC-27853, 24 h. The procedure: as §2
Assay [9] deals with Pseudomonas aeruginosa NCDC-0105. It is filed as cell-based. The note with it: NCDC-0105, 24 h. As for the experimental part: as §2
The subject of assay [10] is Salmonella typhimurium ATCC-14028. It is filed as cell-based. The note with it: ATCC-14028, 24 h. As for the experimental part:
as §2

Assay [11] has as its system S. aureus. In words: Time kill kinetics. It is filed as cell-based, Staphylococcus aureus. As for the experimental part: as §2
Assay [12] deals with S. aureus. Description: LIVE/DEAD BacLight membrane permeability assay. The format is cell-based, Staphylococcus aureus. The note with it: peptide 200μM, log phase culture, SYTO9/PI. The procedure: (§3) The damage to bacterial membrane following addition of peptide was assessed by BacLight kit (Life Technologies, CA, USA). Aliquots of S. aureus, S. enterica and P. aeruginosa cultures from exponential (shaking incubation for 2, 3, and 4 h, respectively) and stationary phases (overnight incubation) were harvested by centrifugation (5000 g for 10 min) and diluted in PBS. Peptides (200μM) were added to bacterial suspension and 50 μl aliquots were removed immediately or after 1 h incubation. Equi-volume mixtures of SYTO9/PI (3 μl/ml bacterial suspension) were added to these aliquots and fluorescent micrographs of stained bacteria were taken at 1000×magnification in a microscope (Olympus BX51 fitted with DP71 camera) with a fluorescence illuminator system.

Assay [13] concerns S. aureus biofilm. In words: Biofilm assay (crystal violet). It is filed as cell-based, Staphylococcus aureus. The note with it: peptide at 1× and 2× MIC, 24 h 37°C, crystal violet A570. The procedure:
as §1

Assay [14] deals with S. aureus. Description: Scanning and transmission electron microscopy. The note with it: lower concentrations (≤2× MIC). The format is cell-based, Staphylococcus aureus. The procedure:
(§4) Early log phase cultures of S. aureus and S. enterica were subjected to different concentration of peptides and incubated at 37°C. The bacterial pellets after centrifugation (5000 g for 10 min) were washed with 0.1M cacodylate buffer (pH 7.2) and were fixed in 2.5% gluteraldehyde at 4°C for 2 h. For scanning electron microscopy, bacteria were dehydrated using gradient series of ethanol wash (30, 50, 70, 90 and absolute). The samples were air-dried overnight, gold coated (Eiko IB-3 ion coater), and viewed in a Zeiss EVO 18 Special Edition SEM. For transmission electron microscopy, fixed samples were adhered to hexagonal PELCO® Grids (Ted Pella, Inc. USA), washed once with Mili-Q water and stained with uranyl acetate (2%) buffer. Samples were viewed in a JEM 1011 (Jeol, Japan) microscope.

Assay [15] relates to S. typhimurium. Description: Scanning and transmission electron microscopy. It is filed as cell-based, Salmonella typhimurium. As for the experimental part: as §4
The subject of assay [16] is Stahylococcus aureus NCDC-0111. It is filed as cell-based, Staphylococcus aureus. The note with it: 24 h. The procedure:
as §2

Assay [17] concerns Stahylococcus aureus ATCC-29213. The format is cell-based, Staphylococcus aureus. The note with it: ATCC-29213, 24 h. The procedure: as §2
Assay [18] concerns S. typhimurium. In words: LIVE/DEAD BacLight membrane permeability assay. It is filed as cell-based, Salmonella typhimurium. The note with it: peptide 200μM, SYTO9/PI. As for the experimental part: as §3

Where no end group is shown, it is not given here.

Regarding RIRFPWPWRWPWWRRVRG [buCATHL4C], the “TNF-α mRNA response” value in assay [1] was “significantly higher”. Also, the “Reduction in biofilm growth of P. aeruginosa” value in [2] is “substantial”. In addition, in assay [3], the “Killing rate compared with indolicidin and ampicillin” value is “comparatively better killing rate”. Moreover, the MIC in [4] was determined as 6 µM; in assay [5] it was 12.5 µM; in [6] it was 1.5 µM; in [7], 0.8 µM; in assay [8], 0.2 µM; in [9] it was 6 µM. Moreover, the MIC is 3 µM in [10], 0.4 µM in assay [16] and 0.2 µM in assay [17]. In assay [11] (peptide at 2× MIC, plating at 0, 1, 4, 12, 24 h), the “Growth inhibition of S. aureus in time kill kinetics” value was “complete growth inhibition”. In addition, the “Time to complete elimination of S. aureus” value in assay [11] (peptide at 4× MIC, time kill kinetics) was found to be 4 h. The “Clumping (agglutination) of S. aureus after peptide addition” value in assay [12] is recorded as “immediate clumping”. Besides, in assay [13], the “Reduction in biofilm growth of S. aureus” value is listed as “substantial”. Further, in assay [14], the “Morphological change of S. aureus cells (SEM/TEM)” value is “swelling and blebing”. Besides, in [15] (Fig 5H and 5L, S. typhimurium, with extensive wrinkling of membrane), the “Formation of pore like structures over the membrane (SEM/TEM)” value is “Formation of pore like structures”. The “Formation of negative curvature on membrane (SEM/TEM)” value in assay [15] (more evident with S. typhimurium) was “Formation of negative curvature”. For the same sequence, the “Clumping (agglutination) of S. typhimurium after peptide addition” value in [18] (log phase culture) was “immediate clumping”. Besides, the “Membrane permeability of latent (stationary phase) S. typhimurium” value in assay [18] (stationary phase culture, proportion of cells affected comparatively less) is given as “affected membrane permeability”.

As usually defined, the MIC is the smallest concentration in the dilution series that meets the test's criterion for growth inhibition. Low readings indicate inhibition by little substance, high ones a need for much substance.
